From ChEMBL document CHEMBL4834464, “Fragment-based Scaffold Hopping: Identification of Potent, Selective, and Highly Soluble Bromo and Extra Terminal Domain (BET) Second Bromodomain (BD2) Inhibitors” (J Med Chem, 2021)
Values after ≈ are worked out from the molar mass of the structure shown.

Columns and labels:
[1] = Permeability of compound by AMP assay; type: ADME; conditions: not told; read-out: permeability
[2] = Kinetic solubility of compound […] using the charged aerosol detector (CAD) analysis; type: physicochemical; conditions: read-out: Kinetic_solubility
[3] = Distribution coefficient, logD of the compound by chromatography; type: physicochemical; conditions: octanol/water
[4] = Solubility of the compound by CLND assay; type: physicochemical
[5] = Solubility of the compound in FaSSIF at pH 6.5 using crystalline form of sample incubated for 16 hrs by HPLC gradient analysis; type: physicochemical
[6] = Solubility of the compound in FaSSIF at pH 6.5 incubated for 16 hrs by HPLC gradient analysis; type: physicochemical; conditions: for solubility: simulated gi fluid, pH 6.5, 16 h; for solubility at 16 h: FaSSIF, pH 6.5
[7] = Intrinsic clearance in human hepatocytes measured per gram of tissue incubated for 120 mins by LC-MS/MS method; type: ADME, cell-based, Hepatocyte; conditions: 2 h
[8] = Volume of distribution at steady state in male Wistar Han rat at 1 mg/kg, iv and 3 mg/kg, po measured up to 7 hrs by LC-MS/MS analysis; type: ADME, organism-based; conditions: in vivo, read-out: Vdss
[9] = Oral bioavailability in Beagle dog at 1 mg/kg measured up to 7 hrs by LC-MS/MS analysis; type: ADME, organism-based, Canis lupus familiaris; conditions: in vivo
[10] = Half life in male Wistar Han rat at 1 mg/kg, iv and 3 mg/kg, po measured up to 7 hrs by LC-MS/MS analysis; type: ADME, organism-based; conditions: in vivo
[11] = Blood clearance in Beagle dog at 0.5 mg/kg, iv and 1 mg/kg, po measured up to 7 hrs by LC-MS/MS analysis; type: ADME, organism-based, Canis lupus familiaris
[12] = Volume of distribution at steady state in Beagle dog at 0.5 mg/kg, iv and 1 mg/kg, po measured up to 7 hrs by LC-MS/MS analysis; type: ADME, organism-based, Canis lupus familiaris; conditions: in vivo, read-out: Vdss
[13] = Half life in Beagle dog at 0.5 mg/kg, iv and 1 mg/kg, po measured up to 7 hrs by LC-MS/MS analysis; type: ADME, organism-based, Canis lupus familiaris; conditions: in vivo
[14] = Intrinsic clearance in Wistar han rat hepatocytes measured per gram of tissue incubated for 60 mins by LC-MS/MS method; type: ADME, cell-based, Hepatocyte; conditions: 1 h
[15] = Intrinsic clearance in dog hepatocytes measured per gram of tissue by LC-MS/MS method; type: ADME, cell-based, Canis lupus familiaris, Hepatocyte
[16] = Blood clearance in male Wistar Han rat at 1 mg/kg, iv and 3 mg/kg, po measured up to 7 hrs by LC-MS/MS analysis; type: ADME, organism-based
[17] = Oral bioavailability in male Wistar Han rat at 3 mg/kg measured up to 7 hrs by LC-MS/MS analysis; type: ADME, organism-based; conditions: in vivo

Structure (SMILES)	Papp [1] [×10⁻⁶ cm/s]	solubility kinetic [2] [µg/mL]	chromatographic logD [3]	solubility kinetic [4] [µg/mL]	solubility at 16 h [6] [µg/mL]	other results
CNC(=O)c1cc(C(=O)N[C@H]2CC[C@H](O)CC2)n([C@@H](C)c2cccc(C(F)(F)F)c2)n1	28	7 (≈ 16 µM)	4.1	–	–	–
CNC(=O)c1cc(C(=O)N[C@H]2[C@@H]3C[C@@H](OC)C[C@@H]32)n([C@@H](C)c2ccccc2)n1	44	–	2.7	≥ 150	–	solubility thermodynamic at 16 h [5]: > 1000 µg/mL
CC[C@@H](c1ccccc1)n1nc(C(=O)NC)cc1C(=O)N[C@H]1[C@@H]2C[C@H](O)C[C@@H]21	23	–	3.6	–	–	–
CCCNC(=O)c1cc(C(=O)NC)nn1[C@@H](C)c1ccccc1	56	–	4.4	≥ 132	–	–
CNC(=O)c1cc(C(=O)NC2CC2)c([C@@H](C)c2ccccc2)o1	50	≥ 145	3.6	≥ 145	–	solubility [6]: 423 µg/mL (≈ 1350 µM)
CNC(=O)c1cc(C(=O)NC2CC2)c([C@H](C)c2ccccc2)o1	> 0.4	≥ 112	3.6	–	–	–
CCNC(=O)c1cc2c(-c3cc(C(C)(C)O)ccc3Oc3c(C)cc(F)cc3C)cn(C)c(=O)c2[nH]1 [ABBV-744]	41.3	26 (≈ 52.9 µM)	5.1	–	–	CLint [7]: 5.1 mL/min/g
CNC(=O)c1cc(C(=O)N[C@H]2CC[C@H](OC)CC2)n([C@@H](C)c2ccccc2)n1	36	–	4.2	≥ 161	–	CLint [7]: < 0.45 mL/min/g; Vd [8]: 2.4 L/kg; bioavailability [9]: 95%; half-life [10]: 1 h; solubility thermodynamic at 16 h [5]: 355 µg/mL (≈ 923 µM); clearance [11]: 6 mL/min/kg; Vd [12]: 2.1 L/kg; half-life [13]: 4.1 h; CLint [14]: 1.7 mL/min/g; CLint [15]: < 0.65 mL/min/g; clearance [16]: 32 mL/min/kg; bioavailability [17]: 80%
CNC(=O)c1cc(C(=O)N[C@H]2[C@@H]3C[C@@H](O)C[C@@H]32)c([C@@H](C)c2ccccc2)o1	4.5	–	2.8	≥ 172	–	CLint [7]: < 0.45 mL/min/g; Vd [8]: 2.3 L/kg; bioavailability [9]: 58%; half-life [10]: 1.2 h; solubility thermodynamic at 16 h [5]: 736 µg/mL (≈ 2000 µM); clearance [11]: 5 mL/min/kg; Vd [12]: 1.1 L/kg; half-life [13]: 2.5 h; CLint [14]: < 0.8 mL/min/g; CLint [15]: < 0.65 mL/min/g; clearance [16]: 41 mL/min/kg; bioavailability [17]: 67%
CC[C@@H](c1ccccc1)n1nc(C(=O)NC)cc1C(=O)N[C@H]1[C@@H]2C[C@@H](O)C[C@@H]21	12	–	3.3	–	56 (≈ 146 µM)	–
CNC(=O)c1cc(C(=O)NC2CC2)n([C@@H](C)c2ccccc2)n1	> 40	≥ 165	3.6	≥ 165	–	solubility [6]: 939 µg/mL (≈ 3010 µM)
CC[C@@H](c1ccccc1)n1nc(C(=O)NC)cc1C(=O)N[C@H]1CC[C@H](O)CC1	7	138 (≈ 359 µM)	–	–	> 1000	–
CNC(=O)c1cc(C(=O)N[C@H]2CC[C@H](O)CC2)c([C@@H](C)c2cccc(C)c2)o1	8.5	≥ 172	3.3	–	> 1000	–
CNC(=O)c1cc(C(=O)N[C@H]2CC[C@H](O)CC2)n([C@@H](C)c2ccc(Cl)cc2)n1	18	≥ 132	3.7	–	102 (≈ 252 µM)	–
CNC(=O)c1cc(C(=O)NC2CC2)n(Cc2ccccc2)n1	> 8	≥ 155	3.1	–	285 (≈ 955 µM)	–
CNC(=O)c1cc(C(=O)NC2CCOCC2)n([C@@H](C)c2ccccc2)n1	27	–	3.6	31 (≈ 87 µM)	–	–
CNC(=O)c1cc(C(=O)NC(C)CO)c([C@@H](C)c2ccccc2)o1 (stereo partly drawn)	5.7	–	2.7	≥ 121	–	–
CCC(=O)c1c[nH]c(C(=O)NC)c1	20	87 (≈ 483 µM)	3.1	–	13 (≈ 72.1 µM)	–
CNC(=O)c1cc(C(=O)N[C@H]2CC[C@H](O)CC2)c([C@@H](C)c2cccc(OC)c2)o1	4.4	≥ 113	2.9	–	868 (≈ 2170 µM)	–
CNC(=O)c1cc(C(=O)NCCO)c([C@@H](C)c2ccccc2)o1	3.3	–	2.3	≥ 132	–	solubility thermodynamic at 16 h [5]: 925 µg/mL (≈ 2920 µM)
CCCNC(=O)c1cc(C(=O)NC)oc1[C@@H](C)c1ccccc1	48	–	4.2	≥ 127	–	–

Structure (SMILES)	Papp [1] [×10⁻⁶ cm/s]	solubility kinetic [2] [µg/mL]	chromatographic logD [3]	solubility kinetic [4] [µg/mL]	solubility at 16 h [6] [µg/mL]	other results
CNC(=O)c1cc(C(=O)N[C@H]2[C@@H]3C[C@@H](O)C[C@@H]32)n([C@@H](C)c2ccccc2)n1	6.1	–	3.2	≥ 291	–	solubility thermodynamic at 16 h [5]: 101 µg/mL (≈ 274 µM)
CNC(=O)c1cc(C(=O)NC2CC2)cn([C@H](C)c2ccccc2)c1=O	–	–	3.5	–	–	–
CNC(=O)c1cc(C(=O)NCCO)n([C@@H](C)c2ccccc2)n1	5.9	–	2.4	≥ 139	–	–
CNC(=O)c1cc(C(=O)N[C@H]2CC[C@H](OC)CC2)c([C@@H](C)c2ccccc2)o1	30.3	–	4.1	≥ 192	–	solubility thermodynamic at 16 h [5]: 141 µg/mL (≈ 367 µM)
CNC(=O)c1cc(C(=O)N[C@H]2CC[C@H](O)CC2)c([C@@H](C)c2ccc(Cl)cc2)o1	15	≥ 118	3.5	–	–	–
CNC(=O)c1cc(C(=O)NC(C)CO)n([C@@H](C)c2ccccc2)n1 (stereo partly drawn)	12	–	2.8	≥ 132	–	–
CNC(=O)c1cc(C(=O)NC2CC2)cn([C@@H](C)c2ccccc2)c1=O	–	–	3.3	–	699 (≈ 2060 µM)	–
CNC(=O)c1cc(C(=O)N[C@H]2[C@@H]3C[C@H](O)C[C@@H]32)n([C@@H](C)c2cccc(Cl)c2)n1	33.3	≥ 168	3.7	–	327 (≈ 812 µM)	CLint [7]: 10.8 mL/min/g; CLint [14]: 17.3 mL/min/g; CLint [15]: 8.3 mL/min/g
CCNC(=O)c1cc(C(=O)NC)nn1[C@@H](C)c1ccccc1	43.5	–	3.7	≥ 137	–	–
CNC(=O)c1cc(C(=O)N[C@H]2CC[C@H](O)CC2)c([C@@H](C)c2cccc(F)c2)o1	7.3	≥ 63	4.1	–	–	–
CNC(=O)c1cc(C(=O)NC)n([C@@H](C)c2ccccc2)n1	28	–	3	≥ 88	–	–
CNC(=O)c1cc(C(=O)N[C@H]2CC[C@H](O)CC2)c([C@@H](C)c2ccc(C)cc2)o1	10.8	≥ 245	3.4	–	> 1000	–
CNC(=O)c1cc(C(=O)N[C@H]2CC[C@H](O)CC2)n([C@@H](C)c2ccccc2Cl)n1	10	≥ 182	3.9	–	–	–
CNC(=O)c1cc(C(=O)N[C@H]2CC[C@H](O)CC2)c([C@@H](C)c2cccc(Cl)c2)o1	15	≥ 179	3.5	–	408 (≈ 1010 µM)	CLint [7]: < 0.45 mL/min/g; Vd [8]: 2.7 L/kg; bioavailability [9]: 62%; half-life [10]: 0.9 h; clearance [11]: 3.6 mL/min/kg; Vd [12]: 0.9 L/kg; half-life [13]: 3.1 h; CLint [14]: 1.5 mL/min/g; CLint [15]: 0.71 mL/min/g; clearance [16]: 55 mL/min/kg; bioavailability [17]: 37%
CCNC(=O)c1cc(C(=O)NC)oc1[C@@H](C)c1ccccc1	42	–	3.5	≥ 148	–	solubility thermodynamic at 16 h [5]: 432 µg/mL (≈ 1440 µM)
CNC(=O)c1cc(C(=O)N[C@H]2CC[C@H](O)CC2)c([C@@H](C)c2ccccc2Cl)o1	7.8	≥ 242	3.1	–	> 1000	–
CNC(=O)c1cc(C(=O)N[C@H]2CC[C@H](OC)CC2)n([C@@H](CO)c2ccccc2)n1	3.9	≥ 164	2.7	–	> 1000	–
CNC(=O)c1cc(C(=O)N[C@H]2CC[C@H](O)CC2)n([C@@H](C)c2cccc(Cl)c2)n1	23.5	≥ 143	3.7	–	196 (≈ 484 µM)	–
CNC(=O)c1cc(C(=O)N[C@H]2CC[C@H](O)CC2)n([C@@H](C)c2ccc(C(F)(F)F)cc2)n1	27	≥ 175	3.9	–	–	–
CNC(=O)c1cc(C(=O)N[C@H]2CC[C@H](O)CC2)n([C@@H](C)c2cccc(C)c2)n1	11	≥ 180	3.4	–	–	–
